Assay results taken from ChEMBL document CHEMBL4229545, “Oximes short-acting CB1 receptor agonists” (Bioorg Med Chem, 2018).
Calls of active or inactive are those of the source. The calls are words filed in the database; no cut-off is given here.

Experiments:
Cannabinoid receptor 1 [1] = biological target: T1, Cannabinoid receptor 1 (Rattus norvegicus, UniProt P20272); test: Displacement of [3H]CP-55,940 from rat brain Cb1 receptor
Cannabinoid receptor 2 [2] = biological target: T2, Cannabinoid receptor 2 (Homo sapiens, UniProt P34972); test: Displacement of [3H]CP-55,940 from recombinant human Cb2 receptor expressed in HEK293 cells; format: cell-based
Cannabinoid receptor 2 [3] = biological target: Cannabinoid receptor 2 (Mus musculus, UniProt P47936); test: Displacement of [3H]CP-55,940 from recombinant mouse Cb2 receptor expressed in HEK293 cells; format: cell-based
Cannabinoid receptor 1 [4] = biological target: T1, Cannabinoid receptor 1; test: Agonist activity at recombinant rat Cb1 receptor expressed in HEK293 cells assessed as inhibition of forskolin-stimulated cAMP levels; format: functional, cell-based
Cannabinoid receptor 2 [5] = biological target: T2, Cannabinoid receptor 2; test: Agonist activity at recombinant human Cb2 receptor expressed in HEK293 cells assessed as inhibition of forskolin-stimulated cAMP levels; format: functional, cell-based
[6] = biological target: Cannabinoid receptor 1 (Rattus norvegicus) (UniProt P20272); test: Agonist activity at recombinant rat Cb1 receptor expressed in HEK293 cells assessed as inhibition of forskolin-stimulated cAMP levels relative to control; format: functional, cell-based
Cannabinoid receptor 2 [7] = biological target: T2, Cannabinoid receptor 2; test: Agonist activity at recombinant human Cb2 receptor expressed in HEK293 cells assessed as inhibition of forskolin-stimulated cAMP levels relative to CP-55940; format: functional, cell-based
[8] = AUC in CD1 mouse plasma at 10 mg/kg, po; format: ADME, organism-based
[9] = biological target: Cannabinoid receptor 1 (Rattus norvegicus) (UniProt P20272); test: Displacement of [3H]CP-55,940 from rat brain Cb1 receptor expressed in HEK293 cells at 10 times Ki measured after 1 hr relative to control; format: cell-based
[10] = biological target: Cannabinoid receptor 1 (Rattus norvegicus) (UniProt P20272); test: Displacement of [3H]CP-55,940 from rat brain Cb1 receptor expressed in HEK293 cells at 10 times Ki incubated for 1 hr followed by 5 times membrane washout; format: cell-based
[11] = Half life in human plasma; format: ADME, cell-free
[12] = Half life in rat plasma; format: ADME, cell-free
[13] = Half life in mouse plasma; format: ADME, cell-free
[14] = Half life in human liver microsomes; format: ADME, microsome
[15] = Half life in rat liver microsomes; format: ADME, microsome
[16] = Half life in mouse liver microsomes; format: ADME, microsome
[17] = Half life in simulated gastric fluid; format: ADME
[18] = Volume of distribution in CD1 mouse at 2 mg/kg, iv; format: ADME, organism-based; settings: in vivo
Mus musculus [19] = test: Volume of distribution in CD1 mouse at 10 mg/kg, po; format: ADME, organism-based; settings: in vivo
[20] = AUC in CD1 mouse at 2 mg/kg, iv; format: ADME, organism-based; settings: in vivo
[21] = AUC in CD1 mouse at 10 mg/kg, po; format: ADME, organism-based; settings: in vivo
[22] = Half life in CD1 mouse at 2 mg/kg, iv; format: ADME, organism-based; settings: in vivo
[23] = Half life in CD1 mouse at 10 mg/kg, po; format: ADME, organism-based; settings: in vivo
[24] = Tmax in CD1 mouse at 10 mg/kg, po; format: ADME, organism-based; settings: in vivo
[25] = AUC in CD1 mouse plasma at 2 mg/kg, iv; format: ADME, organism-based
[26] = AUC in CD1 mouse brain at 2 mg/kg, iv; format: ADME, organism-based
[27] = AUC in CD1 mouse spleen at 2 mg/kg, iv; format: ADME, organism-based
[28] = AUC in CD1 mouse kidney at 2 mg/kg, iv; format: ADME, organism-based
[29] = AUC in CD1 mouse liver at 2 mg/kg, iv; format: ADME, organism-based
[30] = AUC in CD1 mouse fat at 2 mg/kg, iv; format: ADME, organism-based, Adipose tissue
[31] = Ratio of AUC in plasma to urine of CD1 mouse at 10 mg/kg, po; format: ADME, organism-based; settings: in vivo
[32] = Ratio of AUC in plasma to brain of CD1 mouse at 2 mg/kg, iv; format: ADME, organism-based; settings: in vivo
[33] = Ratio of AUC in plasma to spleen of CD1 mouse at 2 mg/kg, iv; format: ADME, organism-based; settings: in vivo
[34] = Ratio of AUC in plasma to kidney of CD1 mouse at 2 mg/kg, iv; format: ADME, organism-based; settings: in vivo
[35] = Ratio of AUC in plasma to liver of CD1 mouse at 2 mg/kg, iv; format: ADME, organism-based; settings: in vivo
[36] = Ratio of AUC in plasma to fat of CD1 mouse at 2 mg/kg, iv; format: ADME, organism-based, Adipose tissue/Plasma; settings: in vivo
[37] = AUC in CD1 mouse brain at 10 mg/kg, po; format: ADME, organism-based
[38] = AUC in CD1 mouse spleen at 10 mg/kg, po; format: ADME, organism-based
[39] = AUC in CD1 mouse kidney at 10 mg/kg, po; format: ADME, organism-based
[40] = AUC in CD1 mouse liver at 10 mg/kg, po; format: ADME, organism-based
[41] = AUC in CD1 mouse fat at 10 mg/kg, po; format: ADME, organism-based, Adipose tissue
[42] = AUC in CD1 mouse urine at 10 mg/kg, po; format: ADME, organism-based
[43] = Ratio of AUC in plasma to brain of CD1 mouse at 10 mg/kg, po; format: ADME, organism-based; settings: in vivo
[44] = Ratio of AUC in plasma to spleen of CD1 mouse at 10 mg/kg, po; format: ADME, organism-based; settings: in vivo
[45] = Ratio of AUC in plasma to kidney of CD1 mouse at 10 mg/kg, po; format: ADME, organism-based; settings: in vivo
[46] = Ratio of AUC in plasma to liver of CD1 mouse at 10 mg/kg, po; format: ADME, organism-based; settings: in vivo
[47] = Ratio of AUC in plasma to fat of CD1 mouse at 10 mg/kg, po; format: ADME, organism-based, Adipose tissue/Plasma; settings: in vivo
Rattus norvegicus [48] = test: Induction of hypothermia in Sprague-Dawley rat assessed as decrease in body temperature at 1 to 10 mg/kg, ip measured after 180 to 360 mins; format: functional, organism-based
Rattus norvegicus [49] = test: Induction of hypothermia in Sprague-Dawley rat assessed as decrease in body temperature at 1 mg/kg, ip measured after 3 to 6 hrs; format: functional, organism-based
Rattus norvegicus [50] = test: Induction of hypothermia in Sprague-Dawley rat assessed as decrease in body temperature at 1 mg/kg, ip measured after 24 hrs; format: functional, organism-based
Mus musculus [51] = test: Analgesic activity in ip dosed CD1 mouse model of thermal-induced nociception assessed as tail withdrawal latency measured after 20 mins by tail flick test; format: functional
Mus musculus [52] = test: Analgesic activity in CD1 mouse model of thermal-induced nociception assessed as tail withdrawal latency at 1 mg/kg, ip measured after 180 to 360 mins by tail flick test; format: functional, organism-based
Rattus norvegicus [53] = species: Rattus norvegicus; settings: Sprague-Dawley
Description: Induction of hypothermia in ip dosed Sprague-Dawley rat assessed as decrease in body temperature measured up to 180 mins

T2 sequence (P34972 whole entry): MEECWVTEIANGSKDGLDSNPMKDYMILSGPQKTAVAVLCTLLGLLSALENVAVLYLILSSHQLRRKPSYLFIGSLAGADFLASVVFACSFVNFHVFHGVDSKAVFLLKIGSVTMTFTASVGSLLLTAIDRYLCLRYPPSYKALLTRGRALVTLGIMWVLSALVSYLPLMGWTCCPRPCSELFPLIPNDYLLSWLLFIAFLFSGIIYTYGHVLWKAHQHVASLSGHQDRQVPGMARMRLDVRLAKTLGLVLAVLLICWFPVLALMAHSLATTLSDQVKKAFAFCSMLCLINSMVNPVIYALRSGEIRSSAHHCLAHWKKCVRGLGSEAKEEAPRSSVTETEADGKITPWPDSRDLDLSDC
Chain of Cannabinoid receptor 2 (Mus musculus, UniProt P47936) (P47936 whole entry): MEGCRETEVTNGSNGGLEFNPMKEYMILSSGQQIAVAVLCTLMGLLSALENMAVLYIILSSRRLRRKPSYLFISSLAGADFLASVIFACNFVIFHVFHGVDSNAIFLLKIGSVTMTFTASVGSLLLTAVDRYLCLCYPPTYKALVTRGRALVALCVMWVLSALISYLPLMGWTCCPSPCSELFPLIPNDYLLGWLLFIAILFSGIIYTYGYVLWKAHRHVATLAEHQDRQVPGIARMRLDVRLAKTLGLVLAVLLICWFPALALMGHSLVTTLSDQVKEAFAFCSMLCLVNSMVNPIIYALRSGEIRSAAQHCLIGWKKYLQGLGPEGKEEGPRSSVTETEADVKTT
T1 sequence (P20272 whole entry): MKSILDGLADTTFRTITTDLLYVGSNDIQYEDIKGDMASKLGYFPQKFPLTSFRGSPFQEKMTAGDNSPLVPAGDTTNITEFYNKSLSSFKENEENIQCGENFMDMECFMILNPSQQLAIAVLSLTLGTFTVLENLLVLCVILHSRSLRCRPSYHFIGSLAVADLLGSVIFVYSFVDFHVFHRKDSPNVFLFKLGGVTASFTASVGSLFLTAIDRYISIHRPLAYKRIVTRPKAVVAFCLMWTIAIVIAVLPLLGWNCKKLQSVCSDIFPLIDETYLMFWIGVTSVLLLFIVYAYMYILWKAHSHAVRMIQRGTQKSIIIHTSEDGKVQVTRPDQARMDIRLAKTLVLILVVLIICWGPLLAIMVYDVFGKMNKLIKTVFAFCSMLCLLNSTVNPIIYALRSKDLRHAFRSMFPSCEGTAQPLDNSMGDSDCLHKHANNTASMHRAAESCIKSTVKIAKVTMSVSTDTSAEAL
Chain of Cannabinoid receptor 1 (Rattus norvegicus) (P20272 whole entry): as above

SMILES: CC1=CC[C@H]2[C@H](C1)c1c(O)cc(/C(C)=N/OCCCCF)cc1OC2(C)C
- Ki (Cannabinoid receptor 1 [1]): 4.1 nM
- Ki (Cannabinoid receptor 2 [2]): 9.7 nM
- Ki (Cannabinoid receptor 2 [3]): 2.5 nM
- EC50 (Cannabinoid receptor 1 [4]; read-out: EC50): 0.7 nM
- EC50 (Cannabinoid receptor 2 [5]; hek293): Not Active
- Emax [6]: 39%

SMILES: CCCC(C)O/N=C(/C)c1cc(O)c2c(c1)OC(C)(C)[C@H]1CC=C(C)C[C@H]21 (mixture of isomers)
- Ki (Cannabinoid receptor 1 [1]): 0.5 nM
- Ki (Cannabinoid receptor 2 [2]): 6.1 nM
- Ki (Cannabinoid receptor 2 [3]): 1.9 nM
- EC50 (Cannabinoid receptor 1 [4]; hek293): Not Active
- EC50 (Cannabinoid receptor 2 [5]; read-out: EC50): 11.5 nM
- Emax (Cannabinoid receptor 2 [7]): 260%

SMILES: CCCC(C)O/N=C(\C)c1cc(O)c2c(c1)OC(C)(C)[C@H]1CC=C(C)C[C@H]21 (mixture of isomers)
- Ki (Cannabinoid receptor 1 [1]): 2 nM
- Ki (Cannabinoid receptor 2 [2]): 24 nM
- Ki (Cannabinoid receptor 2 [3]): 43.6 nM
- EC50 (Cannabinoid receptor 1 [4]; read-out: EC50): 22.4 nM
- EC50 (Cannabinoid receptor 2 [5]; read-out: EC50): 41.3 nM
- Emax [6]: 48%
- Emax (Cannabinoid receptor 2 [7]): 411%

SMILES: CCCCCCC(C)(C)c1ccc([C@@H]2C[C@H](O)CC[C@H]2CCCO)c(O)c1
- Emax [6]: 70 to 85%
- Emax (Cannabinoid receptor 2 [7]): 70 to 85%

SMILES: CC1=CC[C@H]2[C@H](C1)c1c(O)cc(/C(C)=N/OCCCC(F)(F)F)cc1OC2(C)C
- Ki (Cannabinoid receptor 1 [1]): 0.3 nM
- Ki (Cannabinoid receptor 2 [2]): 3 nM
- Ki (Cannabinoid receptor 2 [3]): 0.5 nM
- EC50 (Cannabinoid receptor 1 [4]; read-out: EC50): 0.4 nM
- EC50 (Cannabinoid receptor 2 [5]; read-out: EC50): 1 nM
- Emax [6]: 69%
- Emax (Cannabinoid receptor 2 [7]): 43%

SMILES: CC1=CC[C@H]2[C@H](C1)c1c(O)cc(/C(C)=N/OCCOc3ccccc3)cc1OC2(C)C
- Ki (Cannabinoid receptor 1 [1]): 11.4 nM
- Ki (Cannabinoid receptor 2 [2]): 6.2 nM
- Ki (Cannabinoid receptor 2 [3]): 3.7 nM
- EC50 (Cannabinoid receptor 1 [4]; read-out: EC50): 0.9 nM
- EC50 (Cannabinoid receptor 2 [5]; read-out: EC50): 49.6 nM
- Emax [6]: 56%
- Emax (Cannabinoid receptor 2 [7]): 99%

SMILES: CC1=CC[C@H]2[C@H](C1)c1c(O)cc(/C(C)=N\OCCCC#N)cc1OC2(C)C
- Ki (Cannabinoid receptor 1 [1]): 0.3 nM
- Ki (Cannabinoid receptor 2 [2]): 0.4 nM
- Ki (Cannabinoid receptor 2 [3]): 0.1 nM
- EC50 (Cannabinoid receptor 1 [4]; hek293): Not Active
- EC50 (Cannabinoid receptor 2 [5]; read-out: EC50): 2 nM
- Emax (Cannabinoid receptor 2 [7]): 35%

SMILES: CC1=CC[C@H]2[C@H](C1)c1c(O)cc(/C(C)=N/OCCCC#N)cc1OC2(C)C
- AUC [8]: 124 ng·h/mL
- Ki (Cannabinoid receptor 1 [1]): 0.9 nM
- Ki (Cannabinoid receptor 2 [2]): 1.3 nM
- Ki (Cannabinoid receptor 2 [3]): 2.6 nM
- EC50 (Cannabinoid receptor 1 [4]; read-out: EC50): 4.4 nM
- EC50 (Cannabinoid receptor 2 [5]; read-out: EC50): 12 nM
- Emax [6]: 51%
- Emax (Cannabinoid receptor 2 [7]): 47%
- inhibition [9]: 44%
- inhibition [10]: 23%
- half-life [11]: > 60 min
- half-life [12]: > 60 min
- half-life [13]: > 60 min
- half-life [14]: 9 min
- half-life [15]: 12 min
- half-life [16]: 13 min
- half-life [17]: > 60 min
- Vd [18]: 2.16 L/kg
- Vd (Mus musculus [19]): 68.042 L/kg
- AUC [20]: 1060 ng·h/mL
- AUC [21]: 1240 ng·h/mL
- half-life [22]: 47.3 min
- half-life [23]: 35.2 min
- Tmax [24]: 60 min
- AUC [25]: 900 ng·h/mL
- AUC [26]: 443 ng·h/mL
- AUC [27]: 957 ng·h/mL
- AUC [28]: 890 ng·h/mL
- AUC [29]: 580 ng·h/mL
- AUC [30]: 5390 ng·h/mL
- Ratio AUC [31]: 0.09
- Ratio AUC [32]: 0.49
- Ratio AUC [33]: 1.06
- Ratio AUC [34]: 0.99
- Ratio AUC [35]: 0.64
- Ratio AUC [36]: 5.98
- AUC [37]: 154 ng·h/mL
- AUC [38]: 107 ng·h/mL
- AUC [39]: 257 ng·h/mL
- AUC [40]: 308 ng·h/mL
- AUC [41]: 710 ng·h/mL
- AUC [42]: 11.3 ng·h/mL
- Ratio AUC [43]: 1.24
- Ratio AUC [44]: 0.86
- Ratio AUC [45]: 2.06
- Ratio AUC [46]: 2.48
- Ratio AUC [47]: 5.72
- Activity (Rattus norvegicus [48]): inactive
- Activity (Rattus norvegicus [49]): Active
- Activity (Rattus norvegicus [50]): inactive
- Activity (Mus musculus [51]): Dose-dependent effect
- ED50 (Mus musculus [51]): 1.42 mg/kg
- Activity (Mus musculus [52]): Active
- deltaT (Rattus norvegicus [53]): 4.5 to 7.7 °C

SMILES: CC1=CC[C@H]2[C@H](C1)c1c(O)cc(/C(C)=N\OCCCc3ccccc3)cc1OC2(C)C
- Ki (Cannabinoid receptor 1 [1]): 5 nM
- Ki (Cannabinoid receptor 2 [2]): 2.9 nM
- Ki (Cannabinoid receptor 2 [3]): 2.8 nM
- EC50 (Cannabinoid receptor 1 [4]; hek293): Not Active
- EC50 (Cannabinoid receptor 2 [5]; read-out: EC50): 1.7 nM
- Emax (Cannabinoid receptor 2 [7]): 98%
